According to ChEMBL document CHEMBL3875186, “Design, synthesis, and characterization of rhein analogs as novel inhibitors of scavenger receptor A” (Bioorg Med Chem Lett, 2017):
The source made the active and inactive calls. No cut-off for these calls is given here.

Legend:
[1] = target: T1, Macrophage scavenger receptor types I and II (Mus musculus) (UniProt P30204); assay: (§1) Antagonist activity at SRA in RM1-OVA tumor bearing wild type C57BL/6 mouse derived CD11bpositiveLy6ChighLy6Gnegative myeloid-derived suppressive cells co-cultured with splenocytes assessed as reduction in protein-mediated inhibition of anti CD3/CD28 antibody-induced T-cell proliferation at 10 to 20 uM preincubated for 2 hrs followed by splenocytes addition measured after 72 hrs by [3H]-thymidine incorporation assay
T1 sequence (whole entry): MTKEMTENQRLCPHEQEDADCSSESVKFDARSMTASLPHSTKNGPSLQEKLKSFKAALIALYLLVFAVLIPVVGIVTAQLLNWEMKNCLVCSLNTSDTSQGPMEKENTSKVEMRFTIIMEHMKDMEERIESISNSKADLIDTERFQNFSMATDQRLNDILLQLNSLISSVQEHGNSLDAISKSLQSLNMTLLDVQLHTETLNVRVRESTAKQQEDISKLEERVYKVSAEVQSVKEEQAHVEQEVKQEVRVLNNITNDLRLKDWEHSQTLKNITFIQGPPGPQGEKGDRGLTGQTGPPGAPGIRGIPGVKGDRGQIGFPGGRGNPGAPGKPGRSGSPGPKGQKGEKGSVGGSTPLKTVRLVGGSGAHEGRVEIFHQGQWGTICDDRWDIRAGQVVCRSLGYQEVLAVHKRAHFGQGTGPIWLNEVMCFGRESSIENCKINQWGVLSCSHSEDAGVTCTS

[2] = target: T1, Macrophage scavenger receptor types I and II (Mus musculus); assay: as §1, with “activation by measuring IL-2 secretion” for “proliferation”, “pretreated” for “preincubated”, “56” for “72”, “ELISA” for “[3H]-thymidine incorporation assay”
[3] = target: T1, Macrophage scavenger receptor types I and II (Mus musculus); assay: Antagonist activity at mouse recombinant SRA extracellular domain expressed in baculovirus infected Sf21 insect cells assessed as inhibition of protein-induced reduction of IL2 gene promoter activation in anti CD3/CD28 antibody activated wild type C57BL/6 mouse B3Z T-cells at 50 uM after 5 hrs by beta-galactosidase reporter gene assay
[4] = target: T1, Macrophage scavenger receptor types I and II (Mus musculus); assay: as §1, with “activation by measuring IL-2 secretion pretreated” for “proliferation at 10 to 20 uM preincubated”, “56” for “72”, “ELISA” for “[3H]-thymidine incorporation assay”

`O=C(O)c1ccc2c(c1)C(=O)c1cccc(O)c1C2=O` was tested, and the inhibition [1] was “Active”, the inhibition [2] was “Active” and the inhibition [3] was “Active”.
For `O=C1c2cccc(O)c2C(=O)c2c(O)cccc21`, the inhibition [1] was “Active”, the inhibition [4] was “Dose-dependent effect” and the inhibition [3] was “Active”.
With `O=C(O)c1cc(O)c2c(c1)C(=O)c1cccc(O)c1C2=O` the inhibition [1] was “Active”.
